# ChEMBL document CHEMBL3352005, “Synthesis of a novel universal opioid receptor agonist with the 1,3,5-trioxazatriquinane skeleton and its pharmacologies” (Bioorg Med Chem Lett, 2014)
# pEC50, pKi: −log10 of the molar value.
# What was measured:
# [1] = target: Delta-type opioid receptor (Mus musculus, UniProt P32300); assay: Displacement of [3H]DPDPE from mouse whole brain DOR
# [2] = target: Kappa-type opioid receptor (Cavia porcellus, UniProt P41144); assay: Displacement of [3H]U-69593 from guinea pig cerebellum KOR
# Sequence of Kappa-type opioid receptor (Cavia porcellus, UniProt P41144) (P41144 whole entry): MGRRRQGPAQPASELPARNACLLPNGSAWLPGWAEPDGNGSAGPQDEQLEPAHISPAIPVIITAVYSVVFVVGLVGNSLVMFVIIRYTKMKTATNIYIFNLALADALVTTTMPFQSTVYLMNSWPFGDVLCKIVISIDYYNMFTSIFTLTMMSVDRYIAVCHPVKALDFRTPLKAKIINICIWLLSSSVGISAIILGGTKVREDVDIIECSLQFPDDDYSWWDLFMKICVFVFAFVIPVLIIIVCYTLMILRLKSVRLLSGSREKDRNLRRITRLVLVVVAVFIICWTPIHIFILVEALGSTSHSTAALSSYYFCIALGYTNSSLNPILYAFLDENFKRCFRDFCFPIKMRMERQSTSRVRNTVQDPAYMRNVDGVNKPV
# Mu-type opioid receptor [3] = target: Mu-type opioid receptor (Mus musculus, UniProt P42866); assay: Displacement of [3H]DAMGO from mouse whole brain MOR
# Sequence of Mu-type opioid receptor (Mus musculus, UniProt P42866) (P42866 whole entry): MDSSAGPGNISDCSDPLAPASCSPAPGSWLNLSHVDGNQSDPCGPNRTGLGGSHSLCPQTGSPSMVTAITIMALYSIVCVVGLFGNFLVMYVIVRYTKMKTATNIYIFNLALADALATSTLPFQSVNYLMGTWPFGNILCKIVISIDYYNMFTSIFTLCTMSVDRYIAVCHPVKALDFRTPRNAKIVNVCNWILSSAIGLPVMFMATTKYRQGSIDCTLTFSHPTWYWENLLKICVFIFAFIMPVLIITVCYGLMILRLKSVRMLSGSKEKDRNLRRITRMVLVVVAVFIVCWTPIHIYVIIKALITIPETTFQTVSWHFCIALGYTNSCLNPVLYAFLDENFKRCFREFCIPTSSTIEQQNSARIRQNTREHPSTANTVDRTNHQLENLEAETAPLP
# Mu-type opioid receptor [4] = target: T1, Mu-type opioid receptor (Homo sapiens, UniProt P35372); assay: Agonist activity at human MOR expressed in CHO cells by [35S]GTPgammaS binding assay relative to DAMGO; format: functional, cell-based
# T1 sequence (P35372 whole entry): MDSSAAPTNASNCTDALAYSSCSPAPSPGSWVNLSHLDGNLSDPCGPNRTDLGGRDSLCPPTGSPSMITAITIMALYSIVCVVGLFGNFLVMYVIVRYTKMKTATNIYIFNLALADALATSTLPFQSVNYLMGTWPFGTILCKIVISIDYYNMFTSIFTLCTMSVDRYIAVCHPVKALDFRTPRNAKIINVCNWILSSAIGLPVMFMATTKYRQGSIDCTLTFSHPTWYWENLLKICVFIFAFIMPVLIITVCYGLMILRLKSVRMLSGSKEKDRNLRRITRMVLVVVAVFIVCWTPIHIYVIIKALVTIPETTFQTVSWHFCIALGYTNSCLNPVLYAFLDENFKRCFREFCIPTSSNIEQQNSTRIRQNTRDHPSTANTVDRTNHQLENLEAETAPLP
# [5] = target: T2, Kappa-type opioid receptor (Homo sapiens, UniProt P41145); assay: Agonist activity at human KOR expressed in CHO cells by [35S]GTPgammaS binding assay; format: functional, cell-based
# T2 sequence (P41145 whole entry): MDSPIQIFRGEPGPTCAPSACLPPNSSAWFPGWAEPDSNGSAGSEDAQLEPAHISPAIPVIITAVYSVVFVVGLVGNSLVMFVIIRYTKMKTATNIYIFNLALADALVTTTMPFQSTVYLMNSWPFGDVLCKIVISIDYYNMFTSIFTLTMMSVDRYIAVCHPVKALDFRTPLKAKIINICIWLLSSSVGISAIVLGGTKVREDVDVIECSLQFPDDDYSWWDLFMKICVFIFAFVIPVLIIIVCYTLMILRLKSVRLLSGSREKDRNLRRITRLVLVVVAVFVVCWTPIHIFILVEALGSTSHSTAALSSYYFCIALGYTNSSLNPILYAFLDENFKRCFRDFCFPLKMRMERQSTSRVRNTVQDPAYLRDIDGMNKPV
# [6] = target: T2, Kappa-type opioid receptor; assay: Agonist activity at human KOR expressed in CHO cells by [35S]GTPgammaS binding assay relative to U-69593; format: functional, cell-based
# [7] = target: T3, Delta-type opioid receptor (Homo sapiens, UniProt P41143); assay: Agonist activity at human DOR expressed in CHO cells by [35S]GTPgammaS binding assay; format: functional, cell-based
# T3 sequence (P41143 whole entry): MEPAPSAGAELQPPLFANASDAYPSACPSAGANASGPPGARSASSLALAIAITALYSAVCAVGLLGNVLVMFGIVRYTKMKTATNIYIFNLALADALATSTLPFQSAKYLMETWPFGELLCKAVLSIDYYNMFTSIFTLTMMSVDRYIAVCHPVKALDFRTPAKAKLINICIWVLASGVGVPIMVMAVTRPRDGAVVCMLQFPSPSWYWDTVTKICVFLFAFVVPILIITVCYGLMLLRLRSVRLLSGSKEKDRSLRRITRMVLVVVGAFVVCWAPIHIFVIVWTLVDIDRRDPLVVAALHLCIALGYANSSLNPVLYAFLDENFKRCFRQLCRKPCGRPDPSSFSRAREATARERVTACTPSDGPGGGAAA
# [8] = target: T3, Delta-type opioid receptor; assay: Agonist activity at human DOR expressed in CHO cells by [35S]GTPgammaS binding assay relative to DPDPE; format: functional, cell-based
# Mu-type opioid receptor [9] = target: T1, Mu-type opioid receptor; assay: Agonist activity at human MOR expressed in CHO cells by [35S]GTPgammaS binding assay; format: functional, cell-based
# Sequence of Delta-type opioid receptor (Mus musculus, UniProt P32300) (P32300 whole entry): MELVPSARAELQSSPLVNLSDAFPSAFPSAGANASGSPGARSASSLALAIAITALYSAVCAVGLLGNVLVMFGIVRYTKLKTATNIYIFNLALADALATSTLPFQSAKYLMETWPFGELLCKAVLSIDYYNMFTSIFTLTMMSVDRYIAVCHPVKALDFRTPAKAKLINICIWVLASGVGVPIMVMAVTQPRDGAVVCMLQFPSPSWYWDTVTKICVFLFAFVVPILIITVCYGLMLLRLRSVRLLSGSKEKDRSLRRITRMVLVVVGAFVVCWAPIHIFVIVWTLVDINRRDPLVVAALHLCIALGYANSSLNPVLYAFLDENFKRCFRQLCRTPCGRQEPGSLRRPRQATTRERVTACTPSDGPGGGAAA
Structure (SMILES),pKi [1],pKi [2],pKi (Mu-type opioid receptor [3]),Emax (Mu-type opioid receptor [4]) [%],pEC50 [5],Emax [6] [%],pEC50 [7],Emax [8] [%],pEC50 (Mu-type opioid receptor [9])
C[C@@]1(c2ccccc2O)O[C@@H]2N3[C@H]1O[C@](C)(c1ccccc1O)[C@@H]3O[C@@]2(C)c1ccccc1O,< 6.00,< 6.00,< 6.00,,,,,,
C[C@@]1(c2ccccc2O)O[C@H]2CO[C@@H]3N2[C@H]1O[C@@]3(C)c1ccccc1O,< 6.00,< 6.00,< 6.00,,,,,,
C[C@@]1(c2ccccc2O)O[C@H]2CO[C@@H]3N2[C@H]1O[C@]3(C)c1ccccc1O,< 6.00,< 6.00,< 6.00,,,,,,
C[C@@]1(c2ccc(O)cc2)O[C@H]2CO[C@@H]3N2[C@H]1O[C@@]3(C)c1ccc(O)cc1,< 6.00,< 6.00,< 6.00,,,,,,
C[C@@]1(c2ccccc2O)O[C@@H]2N3[C@H]1O[C@](C)(c1ccccc1O)[C@@H]3O[C@]2(C)c1ccccc1O,< 6.00,< 6.00,< 6.00,,,,,,
C[C@@]1(c2ccccc2O)O[C@H]2CO[C@H]3CO[C@@H]1N32,< 6.00,< 6.00,< 6.00,,,,,,
C[C@@]1(c2ccc(O)cc2)O[C@H]2CO[C@H]3CO[C@@H]1N32,< 6.00,< 6.00,< 6.00,,,,,,
C[C@]1(c2ccc(O)cc2)O[C@H]2CO[C@@H]3N2[C@H]1O[C@]3(C)c1ccc(O)cc1,< 6.00,< 6.00,< 6.00,,,,,,
C[C@@]1(c2ccc(O)cc2)O[C@@H]2N3[C@H](CO[C@H]31)O[C@]2(C)c1ccc(O)cc1,< 6.00,< 6.00,< 6.00,,,,,,
C[C@]1(c2ccc(O)cc2)O[C@H]2CO[C@H]3CO[C@@H]1N32,< 6.00,< 6.00,< 6.00,,,,,,
C[C@]1(c2ccccc2O)O[C@H]2CO[C@H]3CO[C@@H]1N32,< 6.00,< 6.00,< 6.00,,,,,,
C[C@@]1(c2ccccc2O)O[C@@H]2N3[C@H]1O[C@@](C)(c1ccccc1O)[C@@H]3O[C@@]2(C)c1ccccc1O,< 6.00,< 6.00,< 6.00,,,,,,
C[C@@]1(c2ccc(O)cc2)O[C@@H]2N3[C@H]1O[C@](C)(c1ccc(O)cc1)[C@@H]3O[C@]2(C)c1ccc(O)cc1,< 6.00,< 6.00,< 6.00,,,,,,
C[C@@]1(c2ccccc2O)O[C@@H]2N3[C@H](CO[C@H]31)O[C@]2(C)c1ccccc1O,7.05,8.04,7.69,89.2,8.00,131,7.28,73.6,7.24
C[C@@]1(c2ccc(O)cc2)O[C@H]2CO[C@@H]3N2[C@H]1O[C@]3(C)c1ccc(O)cc1,< 6.00,< 6.00,< 6.00,,,,,,
C[C@@]1(c2ccc(O)cc2)O[C@@H]2N3[C@H]1O[C@@](C)(c1ccc(O)cc1)[C@@H]3O[C@@]2(C)c1ccc(O)cc1,< 6.00,< 6.00,< 6.00,,,,,,
C[C@]1(c2ccccc2O)O[C@H]2CO[C@@H]3N2[C@H]1O[C@]3(C)c1ccccc1O,< 6.00,< 6.00,< 6.00,,,,,,
C[C@@]1(c2ccc(O)cc2)O[C@@H]2N3[C@H]1O[C@](C)(c1ccc(O)cc1)[C@@H]3O[C@@]2(C)c1ccc(O)cc1,< 6.00,< 6.00,< 6.00,,,,,,
